Article PMC6349357, “Computational and experimental analysis of bioactive peptide linear motifs in the integrin adhesome” (PLoS ONE, 2019)
Marks after values point to notes of the source that are not given here.

Experiments:
resting platelets = assay: Platelet aggregation induced by peptide in resting washed platelets (activation); format: cell-based, human (healthy volunteers); details: for Activation: platelet aggregation in resting platelets after 6 minutes incubation with peptide, pal-peptides 20 μM, tat-peptides 50 μM, optical density, aggregometer, mean, n>=3; for Aggregation before TRAP activation, donor d: replicate donor d; for Aggregation before TRAP activation, donor d / Aggregation before TRAP activation, donor f / Aggregation before TRAP activation, donor g / Aggregation before TRAP activation, donor h / Aggregation before TRAP activation, donor i / Aggregation before TRAP activation, donor j: pal 20 μM, tat 50 μM; for Aggregation before TRAP activation, donor f: replicate donor f; for Aggregation before TRAP activation, donor g: replicate donor g; for Aggregation before TRAP activation, donor h: replicate donor h; for Aggregation before TRAP activation, donor i: replicate donor i; for Aggregation before TRAP activation, donor j: replicate donor j
Summary of the method: (§1)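 Aggregation was read by optical density at 37°C under 1100 rpm stirring. Samples were 3x10^5/μl washed human platelets, rested 45 min and supplemented with 1.8 mM calcium chloride. Peptide went in at 2 min, followed 6 min later by TRAP at an experiment-dependent concentration, with 7 min further recording.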

TRAP-activated platelets = assay: Inhibition of TRAP-induced platelet aggregation after pre-incubation with peptide; format: cell-based, human (healthy volunteers); details: for Aggregation after TRAP, peptide alone 1x (A 1x / B 1x) / Aggregation after TRAP, peptide alone 2x (A 2x / B 2x): TRAP 2 μM after 6 minutes pre-incubation, mean n = 3; for Aggregation after TRAP, peptide alone 1x (A 1x / B 1x): 4 μM pal-peptides, 10 μM tat-peptides; for Aggregation after TRAP, peptide alone 2x (A 2x / B 2x): double concentration of 4 μM (pal) / 10 μM (tat); for Aggregation after TRAP activation, donor d: replicate donor d; for Aggregation after TRAP activation, donor d / Aggregation after TRAP activation, donor f / Aggregation after TRAP activation, donor g / Aggregation after TRAP activation, donor h / Aggregation after TRAP activation, donor i / Aggregation after TRAP activation, donor j: TRAP 4 μM, pal 20 μM, tat 50 μM; for Aggregation after TRAP activation, donor f: replicate donor f; for Aggregation after TRAP activation, donor g: replicate donor g; for Aggregation after TRAP activation, donor h: replicate donor h; for Aggregation after TRAP activation, donor i: replicate donor i; for Aggregation after TRAP activation, donor j: replicate donor j
Summary of the method: as §1

[1] = format: physicochemical
Protocol: Peptides were stored in powder form at -80°C. Prior to use, they were left at room temperature for one hour. They were then mixed with a specific volume of deionised water to bring them to a 1mM concentration and were then aliquoted and frozen at -80°C. They were thawed a single time before use and discarded after an experiment. Peptides which were not soluble in deionised water (pal-APTNEFYA, pal-LEEDDEEGE, pal-TNITYRGT and pal-KLLITIHDRKE) were dissolved in a 10% DMSO and 90% deionised water solution (leading to a final concentration of 0.2% DMSO when combined with platelets, see below). These peptides were further diluted during platelet aggregations.

[2] = test system: tyrosine phosphorylation in platelets; assay: Phosphotyrosine western blot (4G10) of platelets treated with peptide; format: cell-based, human (healthy volunteers); design: key to Phospho: R: in resting platelets; A: after TRAP activation; details: for Phospho: phosphorylation changes associated with peptide treatment, pal 20 μM, tat 50 μM, TRAP 4 μM
Protocol: A platelet concentration of 3x10^5 /μl was used when performing standard aggregations and a concentration of 1x10^6 /μl was used for sample preparation for western blot analysis. The extent of platelet aggregation was measured by quantifying the optical density of the samples using the Bio-Data PAP-8 aggregometer (platelet aggregation profiler, Horsham, PA, USA). A temperature of 37°C was maintained and samples were stirred using magnets spinning at 1100 rpm. 200 μl of washed platelets was added to each aggregation tube. Different volumes of buffer, peptide and TRAP were added to achieve the desired concentrations. Peptide/buffer was added to each well after two minutes. TRAP, with a final concentration depending on the experiment, was added 6 minutes later and data was collected for an additional 7 minutes.
After the aggregation step, tubes were immediately placed on ice. 27 μl of lysis buffer was then added and the tube was vortexed vigorously. Lysates were left on ice for one hour and vortexed frequently. Proteins were then centrifuged at 14,000 rcf for 10 minutes to remove debris. Samples were then mixed with 2x sample buffer. 50 μl each sample was added to 50 μl of sample buffer. The protein was then denatured by heating to 95°C for 5 minutes. 10 μl of lysate was kept for protein quantification. All samples and lysates were frozen at -80°C.
The Bradford assay was then performed on the lysates to determine protein concentration. Protein concentrations were measured using the Bio-Rad DC Protein Assay. A calibration was created using samples containing a known concentration of bovine serum albumin. These were prepared in advance by sequential dilutions with final concentrations of 1.5mg/ml, 1mg/ml, 0.8mg/ml, 0.6mg/ml, 0.4mg/ml, 0.2mg/ml, 0mg/ml. Samples were then dispensed into a 96 well plate and the Bio-Rad DC reagents were added as described in the protocol. Samples were left to rest for 15 minutes and were then read using 690 0.15 mode on the Wallac plate reader. A standard curve was calculated from the standard samples of known concentration and the y = ax+b equation was used to determine the concentration of the other samples.
Sodium Dodecyl Sulfate Polyacrylamide Gel Electrophoresis (SDS-PAGE) was performed to separate proteins by molecular weight. Polyacrylamide gels were prepared (see Reagents section). Samples or molecular markers were loaded in volumes to give 20 μg of protein. The gels were then run for approximately 80 minutes or until the samples reached the end of the gel. The proteins were then transferred to polyvinylidene difluoride (PVDF) membranes using a Bio-Rad Wet Blot Transfer Cell apparatus. During the transfer the membranes were submerged in 1x transfer buffer (10% 10x transfer buffer, 70% deionised water and 20% methanol). Transfer was performed either overnight at 40 volts at 4°C, or at 100 volts for 1 hour cooled with an ice block. After the transfer the membranes were blocked for 1 hour using 3% bovine albumin serum (BSA) dissolved in TBS-T. Membranes were incubated with 4G10 antibody with a 1:1000 dilution. Unbound primary antibody was washed off with TBS-T three times for 5 minutes each. Membranes were then incubated with anti-mouse IgG secondary antibody (Millipore) with a dilution of 1:30,000. Membranes were submerged in chemiluminescence ECL solution (Thermo Scientific). They were then measured using the western blot developer UVP. One image was taken every 80 seconds for 40 minutes. Numeric data was extracted from selected blots using ImageJ.

[3] = platelet aggregation induced by 4 μM TRAP in platelets pre-incubated with peptide (low value = inhibition), pal-peptides 20 μM, tat-peptides 50 μM, mean, n>=3

Row | Substance | Activation (resting platelets; unit assumed) | Aggregation before TRAP activation, donor d (resting platelets) | Aggregation before TRAP activation, donor f (resting platelets) | Aggregation before TRAP activation, donor g (resting platelets) | Aggregation after TRAP, peptide alone 1x (A 1x / B 1x) (TRAP-activated platelets) | Aggregation after TRAP, peptide alone 2x (A 2x / B 2x) (TRAP-activated platelets) | Platelet aggregation remaining after TRAP (low = inhibition) (TRAP-activated platelets; [3]) | Aggregation after TRAP activation, donor d (TRAP-activated platelets) | Aggregation after TRAP activation, donor f (TRAP-activated platelets) | Aggregation after TRAP activation, donor g (TRAP-activated platelets) | Solubility in deionised water [1] | Aggregation before TRAP activation, donor h (resting platelets) | Aggregation before TRAP activation, donor i (resting platelets) | Aggregation before TRAP activation, donor j (resting platelets) | Aggregation after TRAP activation, donor h (TRAP-activated platelets) | Aggregation after TRAP activation, donor i (TRAP-activated platelets) | Aggregation after TRAP activation, donor j (TRAP-activated platelets) | Phospho [2] | further results
1 | pal-LEEDDEEGE [pal-ITGA2B_tail, N-terminally palmitylated ITGA2B tail peptide] | 2% | 2 | 3 | 2 | 65.67 | 66 | 52 | 74 | 76 | 4 | not soluble |  |  |  |  |  |  |  | 
2 | pal-TNITYRGT [pal-ITGB3_tail, N-terminally palmitylated ITGB3 tail peptide] | 3% | 2 | 5 | 3 |  |  | 71 | 74 | 77 | 63 | not soluble |  |  |  |  |  |  |  | 
3 | pal-KLLITIHDRKE-(NH2) [pal-ITGB3_JM, N-terminally palmitylated ITGB3 juxtamembrane peptide] | 4% | 4 | 3 | 5 |  |  | 73 | 76 | 77 | 68 | not soluble |  |  |  |  |  |  |  | 
4 | TLELDRLMASLSDFRVQNHLP-tat-(NH2) [TGFB1I1_LD-tat, TGFB1I1 LD motif peptide with C-terminal tat] | 3% |  |  |  | 67.33 | 65.67 | 66 |  |  |  |  | 3 | 4 | 4 | 74 | 59 | 67 | R | 
5 | tat-DPMSSTYIEELGKREVTIPPKYRELLA-(NH2) [tat-CAST_1, tat peptide from calpastatin (CAST)] | 3% |  |  |  | 70.33 | 70.67 | 72 |  |  |  |  | 4 | 4 | 3 | 77 | 63 | 76 | A | Phosphotyrosine blot density, peptide + TRAP, Average ([2]; average of 3 replicates, tat peptide 50 µM, TRAP 4 µM): 64.53; Phosphorylation in resting platelets ([2]; in words): no effect; Phosphorylation intensity of TRAP activated platelets ([2]; in words, p = 0.03): increased the phosphorylation intensity; relative density (peptide lane to activated control), replicate 1 ([2]; replicate 1): 4.12; Phosphotyrosine blot density, peptide + TRAP, replicate 1 ([2]; replicate 1, tat peptide 50 µM, TRAP 4 µM): 80; relative density (peptide lane to activated control), replicate 2 ([2]; replicate 2): 1.42; Phosphotyrosine blot density, peptide + TRAP, replicate 2 ([2]; replicate 2, tat peptide 50 µM, TRAP 4 µM): 58.7; relative density (peptide lane to activated control), replicate 3 ([2]; replicate 3): 1.22; Phosphotyrosine blot density, peptide + TRAP, replicate 3 ([2]; replicate 3, tat peptide 50 µM, TRAP 4 µM): 54.9
6 | pal-KVGFFKR-(NH2) [pal-ITGA2B_JM, N-terminally palmitylated ITGA2B juxtamembrane peptide KVGFFKR] |  |  |  |  | 37.33 | 49.33 | 50 |  |  |  |  | 30 | 11 | 12 | 52 | 36 | 64 | R | Activation, 5μM (resting platelets; S3 Table, peptide 5 μM, n=3, unit assumed): 66%; Activation, 20μM (resting platelets; S3 Table, peptide 20 μM, n=3, unit assumed): 62%; Activation (resting platelets): 17 ^*; Platelet aggregation remaining after TRAP (low = inhibition) (TRAP-activated platelets; S3 Table, peptide 5 μM, aggregation after TRAP, n=3): 73; Platelet aggregation remaining after TRAP (low = inhibition) (TRAP-activated platelets; S3 Table, peptide 20 μM, aggregation after TRAP, n=3): 69
